pIC50: −log10 of the molar value.
Columns and labels:
human PDE5 = target: T1, human PDE5 (Homo sapiens, UniProt O76074); experiment: Inhibition of PDE5 activity (modified SPA test, human platelet lysate); type: biochemical; conditions: PDE5-containing human platelet lysate, 0.5 μM cGMP substrate, 37° C.
T1 construct: from tissue; host or cells: human platelets from fresh donor blood (10,000 g supernatant of sonified platelets)
Experimental: As a source for human PDE5, platelets were used. For that purpose, 150 ml fresh blood from human donors anticoagulated with citrate [final concentration 0.3% (w/v)] was centrifuged at 200 g for 10 min to obtain the so-called platelet-rich-plasma (PRP) as a supernatant. 1/10 volume of ACD solution (85 mM Na3-citrate, 111 mM D-glucose, 71 mM citric acid, pH 4.4) was added to 9/10 volume of PRP. After centrifugation (1,400 g, 10 min) the cell pellet was resuspended in 3 ml homogenization buffer (NaCl 140 mM, KCl 3.8 mM, EGTA 1 mM, MgCl2 1 mM, Tris-HCl 20 mM, beta-mercaptoethanol 1 mM, pH 8.2) plus protease-inhibitor mix giving rise to the final concentrations of 0.5 mM Pefablock (Roche), 10 μM Leupeptin, 5 μM Trypsininhibitor, 2 mM Benzamidin and 10 μM Pepstatin A. The suspension was sonified and thereafter centrifuged for 15 min at 10,000 g. The resulting supernatant (platelet lysate) was used for enzymatic testings.
PDE5A1 activity is inhibited by the compounds of the invention in a modified SPA (scintillation proximity assay) test, supplied by Amersham Biosciences (see procedural instructions “phosphodiesterase [3H]cAMP SPA enzyme assay, code TRKQ 7090”), carried out in 96-well microtitre plates (MTP's). The test volume is 100 μl and contains 20 mM Tris buffer (pH 7.4), 0.1 mg of BSA (bovine serum albumin)/ml, 5 mM Mg^2+, 1 μM motapizone, 10 nM PDE2 inhibitor BAY-60-7550, 0.5 μM cGMP (including about 50,000 cpm of [3H]cGMP as a tracer), 1 μl of the respective compound dilution in dimethylsulfoxide (DMSO) and sufficient PDE5-containing platelet lysat (10,000×g supernatant, see above) to ensure that 10-20 wt % of the cGMP is converted under the said experimental conditions. […] After a preincubation of 5 min at 37° C., the reaction was started by adding the substrate (cGMP) and the assay was incubated for a further 15 min; after that, it was stopped by adding SPA beads (50 μl). In accordance with the manufacturer's instructions, the SPA beads had previously been resuspended in water, but were then diluted 1:3 (v/v) in water; the diluted solution also contains 3 mM 8-methoxymethyl-3-isobutyl-1-methylxanthine (IBMX) to ensure a complete PDE activity stop. After the beads have been sedimented (>30 min), the MTP's are analyzed in commercially available luminescence detection devices. The corresponding IC50 values of the compounds for the inhibition of PDE activity are determined from the concentration-effect curves by means of non-linear regression.

SMILES	melting point	pIC50 (human PDE5)
COc1ccc(Cc2nc3c(c4c2[nH]c2ccccc24)CCC(C)C3)cc1 (centres unmarked) [Example 4, 6-(4-Methoxy-benzyl)-3-methyl-2,3,4,7-tetrahydro-1H-indolo[2,3-c]quinoline]	186 °C	8.47
CC1(C)CC(=O)c2c(nc(Cc3ccc(OC(F)(F)F)cc3)c3[nH]c4ccccc4c23)C1 [Example 11, 3,3-Dimethyl-6-(4-trifluoromethoxy-benzyl)-2,3,4,7-tetrahydro-indolo[2,3-c]quinolin-1-one]	141 to 143 °C	6.87
CCOc1ccc(Cc2nc3c(c4c2[nH]c2ccccc24)C(=O)CC(C)(C)C3)cc1 [Example 12, 6-(4-Ethoxy-benzyl)-3,3-dimethyl-2,3,4,7-tetrahydro-indolo[2,3-c]quinolin-1-one]	179 to 181 °C	7.57
CC(C)c1ccc(Cc2nc3c(c4c2[nH]c2ccccc24)C(=O)CC(C)(C)C3)cc1 [Example 14, 6-(4-Isopropyl-benzyl)-3,3-dimethyl-2,3,4,7-tetrahydro-indolo[2,3-c]quinolin-1-one]	153 to 155 °C	6.46
COc1ccc(Cc2nc3c(c4c2[nH]c2ccccc24)C(=O)CC(C)(C)C3)cc1Cl [Example 15, 6-(3-Chloro-4-methoxy-benzyl)-3,3-dimethyl-2,3,4,7-tetrahydro-indolo[2,3-c]quinolin-1-one]	209 to 211 °C	8.20
COc1ccc(Cc2nc3c(c4c2[nH]c2ccccc24)C(=O)CC(C)C3)cc1 (centres unmarked) [Example 17, 6-(4-Methoxy-benzyl)-3-methyl-2,3,4,7-tetrahydro-indolo[2,3-c]quinolin-1-one]	102 °C	8.50
O=C1CCCc2nc(Cc3ccc4c(c3)OCO4)c3[nH]c4ccccc4c3c21 [Example 18, 6-Benzo[1,3]dioxol-5-ylmethyl-2,3,4,7-tetrahydro-indolo[2,3-c]quinolin-1-one]	194 to 197 °C	8.44
CC1(C)CC(=O)c2c(nc(Cc3ccc(Cl)cc3)c3[nH]c4ccccc4c23)C1 [Example 20, 6-(4-Chloro-benzyl)-3,3-dimethyl-2,3,4,7-tetrahydro-indolo[2,3-c]quinolin-1-one]	205 to 207 °C	7.99
CC1(C)CC(=O)c2c(nc(Cc3cccc(Br)c3)c3[nH]c4ccccc4c23)C1 [Example 21, 6-(3-Bromo-benzyl)-3,3-dimethyl-2,3,4,7-tetrahydro-indolo[2,3-c]quinolin-1-one]	215 to 219 °C	6.90
CC1(C)CC(=O)c2c(nc(Cc3cc(F)cc(F)c3)c3[nH]c4ccccc4c23)C1 [Example 22, 6-(3,5-Difluoro-benzyl)-3,3-dimethyl-2,3,4,7-tetrahydro-indolo[2,3-c]quinolin-1-one]	204 to 208 °C	7.81
COc1ccc(Cc2nc3c(c4c2[nH]c2ccccc24)C(=O)CC(C)(C)C3)cc1F [Example 23, 6-(3-Fluoro-4-methoxy-benzyl)-3,3-dimethyl-2,3,4,7-tetrahydro-indolo[2,3-c]quinolin-1-one]	192 to 195 °C	8.90
CC1(C)CC(=O)c2c(nc(Cc3ccc(F)c(F)c3)c3[nH]c4ccccc4c23)C1 [Example 24, 6-(3,4-Difluoro-benzyl)-3,3-dimethyl-2,3,4,7-tetrahydro-indolo[2,3-c]quinolin-1-one]	204 to 207 °C	7.85
Cc1ccc(Cc2nc3c(c4c2[nH]c2ccccc24)C(=O)CC(C)(C)C3)cc1 [Example 25, 3,3-Dimethyl-6-(4-methyl-benzyl)-2,3,4,7-tetrahydro-indolo[2,3-c]quinolin-1-one]	182 to 184 °C	8.53
O=C1CCCc2nc(Cc3ccc([N+](=O)[O-])cc3)c3[nH]c4ccccc4c3c21 [Example 26, 6-(4-Nitro-benzyl)-2,3,4,7-tetrahydro-indolo[2,3-c]quinolin-1-one]	138 to 140 °C	6.45
COc1ccc(Cc2nc3c(c4c2[nH]c2ccccc24)C(=O)CC(C)(C)C3)c(F)c1 [Example 27, 6-(2-Fluoro-4-methoxy-benzyl)-3,3-dimethyl-2,3,4,7-tetrahydro-indolo[2,3-c]quinolin-1-one]	138 to 140 °C	8.65
CC1(C)CC(=O)c2c(nc(Cc3ccc(F)cc3)c3[nH]c4ccccc4c23)C1 [Example 28, 6-(4-Fluoro-benzyl)-3,3-dimethyl-2,3,4,7-tetrahydro-indolo[2,3-c]quinolin-1-one]	200 to 204 °C	7.74
COc1ccc(Cc2nc3c(c4c2[nH]c2ccccc24)C(=O)CCC3)cc1F [Example 29, 6-(3-Fluoro-4-methoxy-benzyl)-2,3,4,7-tetrahydro-indolo[2,3-c]quinolin-1-one]	228 to 230 °C	8.90
COc1ccc(Cc2nc3c(c4c2[nH]c2ccccc24)CCCC3)cc1F [Example 30, 6-(3-Fluoro-4-methoxy-benzyl)-2,3,4,7-tetrahydro-1H-indolo[2,3-c]quinoline]	118 to 120 °C	8.40
COc1ccc(Cc2nc3c(c4c2[nH]c2ccccc24)C(=O)CC(C)(C)C3)c(F)c1F [Example 31, 6-(2,3-Difluoro-4-methoxy-benzyl)-3,3-dimethyl-2,3,4,7-tetrahydro-indolo[2,3-c]quinolin-1-one]	199 to 200 °C	9.40
COc1c(F)cc(Cc2nc3c(c4c2[nH]c2ccccc24)C(=O)CC(C)(C)C3)cc1F [Example 32, 6-(3,5-Difluoro-4-methoxy-benzyl)-3,3-dimethyl-2,3,4,7-tetrahydro-indolo[2,3-c]quinolin-1-one]	195 to 196 °C	9.72
CC1(C)CC(=O)c2c(nc(Cc3cccc(F)c3)c3[nH]c4ccccc4c23)C1 [Example 34, 6-(3-Fluoro-benzyl)-3,3-dimethyl-2,3,4,7-tetrahydro-indolo[2,3-c]quinolin-1-one]	184 to 192 °C (dec.)	8.31
CC1(C)CC(=O)c2c(nc(Cc3cccc(Cl)c3)c3[nH]c4ccccc4c23)C1 [Example 35, 6-(3-Chloro-benzyl)-3,3-dimethyl-2,3,4,7-tetrahydro-indolo[2,3-c]quinolin-1-one]	206 to 209 °C	7.43
CC1(C)CC(=O)c2c(nc(Cc3cc(F)cc(Cl)c3)c3[nH]c4ccccc4c23)C1 [Example 36, 6-(3-Chloro-5-fluoro-benzyl)-3,3-dimethyl-2,3,4,7-tetrahydro-indolo[2,3-c]quinolin-1-one]	219 to 221 °C	6.63
CC1(C)CC(=O)c2c(nc(Cc3ccc4c(c3)OCO4)c3[nH]c4ccccc4c23)C1 [Example 37, 6-Benzo[1,3]dioxol-5-ylmethyl-3,3-dimethyl-2,3,4,7-tetrahydro-indolo[2,3-c]quinolin-1-one]	193 to 196 °C (dec.)	8.31
CC1(C)CC(=O)c2c(nc(Cc3ccc(O)c(F)c3)c3[nH]c4ccccc4c23)C1 [Example 38, 6-(3-Fluoro-4-hydroxy-benzyl)-3,3-dimethyl-2,3,4,7-tetrahydro-indolo[2,3-c]quinolin-1-one]	216 to 218 °C	9.20
CC1(C)CC(=O)c2c(nc(Cc3ccc(N)cc3)c3[nH]c4ccccc4c23)C1 [Example 40, 6-(4-Amino-benzyl)-3,3-dimethyl-2,3,4,7-tetrahydro-indolo[2,3-c]quinolin-1-one]	123 to 124 °C	7.93
CC1(C)CC(=O)c2c(nc(Cc3cccc(N)c3)c3[nH]c4ccccc4c23)C1 [Example 41, 6-(3-Amino-benzyl)-3,3-dimethyl-2,3,4,7-tetrahydro-indolo[2,3-c]quinolin-1-one]	232 to 234 °C	8.29
CC(=O)Nc1ccc(Cc2nc3c(c4c2[nH]c2ccccc24)C(=O)CC(C)(C)C3)cc1 [Example 44, N-[4-(3,3-Dimethyl-1-oxo-2,3,4,7-tetrahydro-1H-indolo[2,3-c]quinolin-6-ylmethyl)-phenyl]-acetamide]	153 to 154 °C	7.78
